This data set in a line: solubility of sirolimus in solvents / dispersion media. Format: physicochemical. The method, then: Solution 524 is a homogeneous mixture in which therapeutic substance 112 dissolves within a solvent or a solvent mixture. In one embodiment, solution 524 includes a high-capacity solvent 528 which is an organic solvent that has a high capacity to dissolve therapeutic substance 112. High capacity as utilized herein is defined as an ability to dissolve therapeutic substance 112 at concentrations greater than 500 mg of substance per milliliter of solvent. Examples of high capacity drug dissolving solvents for sirolimus and similar substances include but are not limited to tetrahydrofuran (THF), di-chloromethane (DCM), chloroform, and di-methyl-sulfoxide (DMSO). In addition to the high-capacity solvent, solution 524 may include an excipient 526 in order to assist in drug elution. In one embodiment, excipient 526 may be a surfactant such as but not limited to sorbitan fatty acid esters such as sorbitan monooleate and sorbitan monolaurate, polysorbates such as polysorbate 20, polysorbate 60, and polysorbate 80, cyclodextrins such as 2-hydroxypropyl-beta-cyclodextrin and 2,6-di-O-methyl-beta-cyclodextrin, sodium dodecyl sulfate, octyl glucoside, and low molecular weight poly(ethylene glycol)s. In another embodiment, excipient 526 may be a hydrophilic agent such as but not limited to salts such as sodium chloride and other materials such as urea, citric acid, and ascorbic acid. […]

The structures appear in SMILES notation.

Take `CO[C@H]1C[C@@H]2CC[C@@H](C)[C@@](O)(O2)C(=O)C(=O)N2CCCC[C@H]2C(=O)O[C@H]([C@H](C)C[C@@H]2CC[C@@H](O)[C@H](OC)C2)CC(=O)[C@H](C)/C=C(\C)[C@@H](O)[C@@H](OC)C(=O)[C@H](C)C[C@H](C)/C=C/C=C/C=C/1C` [sirolimus]: the solubility in hexane result (hexane) was “insoluble”. Also, the solubility in water result (water) was “insoluble”.

Source of the values: US8632846B2, “Apparatus and methods for loading a drug eluting medical device” (Medtronic Vascular, Inc., priority 2010, dated 2014).
